The text below walks through data of patent US8399439B2, “2-methylene-19,26-dinor-(20S,22E,25R)-vitamin D analogs” (Wisconsin Alumni Research Foundation, priority 2008, dated 2013).

The structures appear in SMILES notation.

The subject of test [1] is vitamin D-deficient rats. Nature of the test: Intestinal calcium transport (everted gut sac method). The conditions noted are these: FIG. 5. In kind it is in vivo, rat. How it is done:
(§1) Male, weanling Sprague-Dawley rats were placed on Diet 11 (0.47% Ca) diet+AEK oil for one week followed by Diet 11 (0.02% Ca)+AEK oil for 3 weeks. The rats were then switched to a diet containing 0.47% Ca for one week followed by two weeks on a diet containing 0.02% Ca. Dose administration began during the last week on 0.02% calcium diet. Four consecutive ip doses were given approximately 24 hours apart. Twenty-four hours after the last dose, blood was collected from the severed neck and the concentration of serum calcium determined as a measure of bone calcium mobilization. The first 10 cm of the intestine was also collected for intestinal calcium transport analysis using the everted gut sac method.
Intestinal calcium transport was evaluated in the same group of animals using the everted gut sac method (FIG. 5).

The target of test [2] is T1, full-length recombinant rat vitamin D receptor (Rattus norvegicus, UniProt P13053).
T1 construct: Full-length recombinant rat receptor was expressed in E. coli; His tag (C); made in house; host or cells: E. coli BL21 (DE3) Codon Plus RIL
T1 sequence (P13053 1-423): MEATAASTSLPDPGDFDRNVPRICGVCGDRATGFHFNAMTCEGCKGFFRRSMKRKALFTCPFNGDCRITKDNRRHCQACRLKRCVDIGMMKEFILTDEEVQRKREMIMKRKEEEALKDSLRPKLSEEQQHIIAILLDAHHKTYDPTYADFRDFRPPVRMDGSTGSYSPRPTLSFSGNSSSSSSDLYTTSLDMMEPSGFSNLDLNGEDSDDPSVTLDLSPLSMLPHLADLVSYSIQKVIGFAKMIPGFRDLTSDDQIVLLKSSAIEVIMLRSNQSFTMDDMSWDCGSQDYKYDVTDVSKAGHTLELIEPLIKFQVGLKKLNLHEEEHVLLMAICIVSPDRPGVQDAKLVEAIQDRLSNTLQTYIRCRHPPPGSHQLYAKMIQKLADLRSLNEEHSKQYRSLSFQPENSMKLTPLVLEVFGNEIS
Description: Vitamin D receptor competitive binding with [3H]-1,25(OH)2D3. The conditions noted are these: full-length recombinant rat VDR; FIG. 1; read-out: Ki, competition with [3H]-1,25(OH)2D3 for binding to vitamin D receptor. As for the experimental part:
Full-length recombinant rat receptor was expressed in E. coli BL21 (DE3) Codon Plus RIL cells and purified to homogeneity using two different column chromatography systems. The first system was a nickel affinity resin that utilizes the C-terminal histidine tag on this protein. The protein that was eluted from this resin was further purified using ion exchange chromatography (S-Sepharose Fast Flow). Aliquots of the purified protein were quick frozen in liquid nitrogen and stored at −80° C. until use. For use in binding assays, the protein was diluted in TEDK50 (50 mM Tris, 1.5 mM EDTA, pH7.4, 5 mM DTT, 150 mM KCl) with 0.1% Chaps detergent. The receptor protein and ligand concentration were optimized such that no more than 20% of the added radiolabeled ligand was bound to the receptor.
Radiolabeled and unlabeled ligands were added to 100 mcl of the diluted protein at a final ethanol concentration of ≦10%, mixed and incubated overnight on ice to reach binding equilibrium. The following day, 100 mcl of hydroxylapatite slurry (50%) was added to each tube and mixed at 10-minute intervals for 30 minutes. The hydroxylapaptite was collected by centrifugation and then washed three times with Tris-EDTA buffer (50 mM Tris, 1.5 mM EDTA, pH 7.4) containing 0.5% Titron X-100. […] Total binding was determined from the tubes containing only radiolabeled ligand.

Test [3] concerns 24-hydroxylase (24Ohase) gene promoter. Nature of the test: In vitro transcription assay, luciferase reporter in ROS 17/2.8 (bone) cells. In kind it is cell-based. The conditions noted are these: for EC50: ROS 17/2.8 cells, 24-hydroxylase promoter-luciferase, 16 h, FIG. 3, read-out: EC50, transcriptional activity in bone cells. As for the experimental part:
Transcription activity was measured in ROS 17/2.8 (bone) cells that were stably transfected with a 24-hydroxylase (24Ohase) gene promoter upstream of a luciferase reporter gene (Arbour et al., 1998). Cells were given a range of doses. Sixteen hours after dosing the cells were harvested and luciferase activities were measured using a luminometer.
RLU=relative luciferase units.
In general terms: Reporter assays use an easily measured gene product as a stand-in for the process of interest.

Test [4] relates to vitamin D-deficient rats. Nature of the test: Bone calcium mobilization (serum calcium). Type of test: in vivo, rat. To be noted: rats on low calcium diet (0.02%), FIG. 4. As for the experimental part:
as §1
Calcium mobilization from bone and intestinal calcium absorption in vitamin D-deficient animals. Using vitamin D-deficient rats on a low calcium diet (0.02%), the activities of SOR-1 and 1,25(OH)2D3 in intestine and bone were tested.

The next test concerns HL-60 cells. Description: HL-60 cell differentiation (nitro blue tetrazolium reduction). In kind it is cell-based, human. The conditions noted are these: for EC50: HL-60 cells, 4 days, FIG. 2. As for the experimental part: The study drugs were dissolved in ethanol and the concentrations determined using UV spectrophotometry. Serial dilutions were prepared so that a range of drug concentrations could be tested without changing the final concentration of ethanol (≦0.2%) present in the cell cultures.
Human promyelocytic leukemia (HL60) cells were grown in RPMI-1640 medium containing 10% fetal bovine serum. The cells were incubated at 37° C. in the presence of 5% CO2.
HL60 cells were plated at 1.2×10^5 cells/ml. Eighteen hours after plating, cells in duplicate were treated with drug. Four days later, the cells were harvested and a nitro blue tetrazolium reduction assay was performed (Collins et al., 1979; J. Exp. Med. 149:969-974). The percentage of differentiated cells was determined by counting a total of 200 cells and recording the number that contained intracellular black-blue formazan deposits. Verification of differentiation to monocytic cells was determined by measuring phagocytic activity (data not shown).

The mark [5] stands for this setting: 780 pmol/day ip for 4 consecutive days.
Where [6] appears, read: 2,340 pmol/day ip for 4 consecutive days.
The mark [7] stands for this setting: fold more active than 1α,25-dihydroxyvitamin D3.

With `C=C1[C@H](O)CC(=C/C=C2\CCC[C@]3(C)[C@@H]([C@@H](C)/C=C/C[C@@H](C)O)CC[C@@H]23)C[C@H]1O` [SOR-1, 2-methylene-19,26-dinor-(20S,22E,25R)-1α,25-dihydroxyvitamin D3], the “intestinal calcium transport activity” value in the test with vitamin D-deficient rats [1] (setting [5]) is “almost no activity as compared to 1,25(OH)2D3”; in the test on vitamin D-deficient rats [1] (setting [6]) it was “activity similar to 1,25(OH)2D3”. In test [2], the Ki (as a rule, a measure of affinity in units of concentration, obtained from inhibition or displacement) stood at 100 pM. Besides, the EC50 (commonly the concentration that produces a half-maximal response) in test [3] is 80 pM; in the test with HL-60 cells (Homo sapiens, 96 h), 900 pM. Moreover, the “transcriptional activity in bone cells relative to 1α,25-dihydroxyvitamin D3” value in test [3] (setting [7]) is reported as “about 3 times”. The bone calcium mobilization entry in the test on vitamin D-deficient rats [4] (setting [6]) is recorded as “did not result in any mobilization of bone calcium”. For the same compound, in the test on HL-60 cells (setting [7]), the “HL-60 cell differentiation activity relative to 1α,25-dihydroxyvitamin D3” value is on record as “about 3 times”.
In the case of `C=C1/C(=C\C=C2/CCC[C@]3(C)[C@@H]([C@H](C)CCCC(C)(C)O)CC[C@@H]23)C[C@@H](O)C[C@@H]1O` [1α,25-dihydroxyvitamin D3, reference compound], the EC50 in test [3] worked out at 200 pM; with HL-60 cells, 2000 pM. The bone calcium mobilization entry with vitamin D-deficient rats [4] (setting [5]) was “significant activity”. The serum calcium levels result with vitamin D-deficient rats [4] (all dosages) was “increased serum calcium levels at all dosages”.
